From ChEMBL document CHEMBL4359828, “Back to the future: Advances in development of broad-spectrum capsid-binding inhibitors of enteroviruses” (Eur J Med Chem, 2019)

Assays:
[1] = Antiviral activity against Echovirus-3; type: functional, Echovirus E3
Echovirus E11 = assay: Antiviral activity against Echovirus-11; type: functional, organism-based; details: Enterovirus B
Enterovirus [2] = assay: Antiviral activity against Rhinovirus; type: functional, organism-based
Poliovirus 2 [3] = assay: Antiviral activity against Human poliovirus 2 infected in mouse; type: functional, organism-based; details: Enterovirus C
rhinovirus B5 = assay: Antiviral activity against Human rhinovirus B5; type: functional, organism-based; details: Rhinovirus B
[4] = Antiviral activity against Human rhinovirus B3; type: functional
rhinovirus B14 = assay: Antiviral activity against Human rhinovirus B14; type: functional, organism-based; details: Rhinovirus B
Coxsackievirus B3 = assay: Antiviral activity against Coxsackievirus B3; type: functional, organism-based; details: Enterovirus B
rhinovirus A2 = assay: Antiviral activity against Human rhinovirus A2; type: functional, organism-based; details: Rhinovirus A
enterovirus D68 = assay: Antiviral activity against Enterovirus D68; type: functional, organism-based; details: Enterovirus D
Echovirus E9 = assay: Antiviral activity against Echovirus 9; type: functional, organism-based; details: Enterovirus B
Coxsackievirus A9 = assay: Antiviral activity against Coxsackievirus A9; type: functional, organism-based; details: Enterovirus B
Coxsackievirus A24 = assay: Antiviral activity against Coxsackievirus A24; type: functional, organism-based; details: Enterovirus C
Enterovirus A71 [5] = assay: Antiviral activity against Enterovirus A71 genotype A; type: functional, organism-based
Enterovirus A71 [6] = assay: Antiviral activity against Enterovirus A71 genotype C; type: functional, organism-based; details: Enterovirus A
Enterovirus A71 [7] = assay: Antiviral activity against Enterovirus A71 genotype B; type: functional, organism-based; details: Enterovirus A
Enterovirus C [8] = assay: Antiviral activity against Poliovirus assessed as reduction in virus induced cytopathic effect relative to control; type: functional
Enterovirus C [9] = assay: Antiviral activity against Poliovirus; type: functional, organism-based
Human rhinovirus sp. [10] = assay: Antiviral activity against Human rhinovirus clinical isolates relative to control; type: functional
Enterovirus C [11] = assay: Antiviral activity against Poliovirus assessed as reduction in virus induced cytopathic effect; type: functional, organism-based
Poliovirus 2 [12] = assay: Antiviral activity against Human poliovirus 2 relative to control; type: functional
Poliovirus 2 [13] = assay: Antiviral activity against Human poliovirus 2; type: functional, organism-based; details: Enterovirus C
Human rhinovirus sp. [14] = assay: Antiviral activity against Human rhinovirus clinical isolates; type: functional, organism-based
Enterovirus A71 [15] = assay: Antiviral activity against Enterovirus A71; type: functional, organism-based; details: Enterovirus A
[16] = Antiviral activity against Human rhinovirus B48; type: functional
[17] = Antiviral activity against Human rhinovirus B42; type: functional
[18] = Antiviral activity against Human rhinovirus A8; type: functional
HeLa = assay: Cytotoxicity against human HeLa cells after 3 days by MTT assay; type: functional, cell-based; details: 72 h
Enterovirus [19] = assay: Antiviral activity against Enterovirus clinical isolate; type: functional, organism-based
Enterovirus [20] = assay: Antiviral activity against Rhinovirus at 32 uM relative to control; type: functional

`COc1ccc(OCCCCCCCc2cc(C)no2)c(Cl)c1` showed an IC50 [1] of 40 to 150 nM, an IC50 (Echovirus E11) of 40 to 150 nM and an IC50 (Enterovirus [2]; Enterovirus) of 10 to 5800 nM. For the same molecule, the IC50 (Poliovirus 2 [3]) was 40 to 150 nM.

`Cc1cc(CCCOc2c(C)cc(-c3ccc(Cl)cc3)cc2C)on1` showed an IC50 (rhinovirus B5) of 110 nM and an IC50 [4] of 120 nM.

`Cc1cc(CCCCCOc2c(Cl)cc(-c3cccs3)cc2Cl)on1` gave an IC50 (rhinovirus B14) of 7320 nM.

For `Cc1cc(CCCOc2c(C)cc(-c3cccc(C(F)(F)F)c3)cc2C)on1`, the IC50 (Coxsackievirus B3) was 1340 nM and the IC50 (rhinovirus A2) was 9 nM.

`O=C1N(CCCCCOc2ccc(Br)cc2)CCN1c1ccncc1` showed an IC50 (enterovirus D68) of 2130 nM, an IC50 (Echovirus E9) of 2600 nM and an IC50 (Coxsackievirus A9) of 470 to 550 nM. The IC50 (Coxsackievirus A24) was 470 to 550 nM, the IC50 (Enterovirus A71 [5]) was 300 to 1600 nM and the IC50 (Enterovirus A71 [6]) was 300 to 1600 nM. For the same molecule, the IC50 (Enterovirus A71 [7]) was 300 to 1600 nM.

Molecule `Cc1cc(CCCOc2c(C)cc(-c3cccc([N+](=O)[O-])c3)cc2C)on1` has an IC50 (rhinovirus B5) of 350 nM and an IC50 [4] of 350 nM.

`Cc1cc(CCCCCOc2c(Cl)cc(-c3cccnc3)cc2Cl)on1` showed an IC50 (rhinovirus B14) of 970 nM.

Work on `Cc1cc(CCCOc2c(C)cc(-c3cccc(F)c3)cc2C)on1` yielded an IC50 (Coxsackievirus B3) of 1340 nM and an IC50 (rhinovirus A2) of 9 nM.

Molecule `Cc1cc(CCCCCOc2c(Cl)cc(-c3ccc(C)s3)cc2Cl)on1` has an IC50 (rhinovirus B14) of 5200 nM.

With `COc1ccc(OCc2ccc(COc3c(Cl)cccc3Cl)cc2)c(Cl)c1` the “inhibition (INH)” value (Enterovirus C [8]) was 90%, the EC50 (Enterovirus C [9]) was under 76 nM and the Activity (Human rhinovirus sp. [10]) was 80%. It also gave an EC50 (Enterovirus C [11]) of 3 to 126 nM, an Activity (Poliovirus 2 [12]) of 80% and an EC50 (Poliovirus 2 [13]) of 900 nM. It also gave an EC50 (Human rhinovirus sp. [14]) of 900 nM.

`Cc1cc(CCCCCOc2c(Cl)cc(-c3ccc(Cl)o3)cc2Cl)on1` showed an IC50 (rhinovirus B14) of 2000 nM.

Molecule `CCc1nc(-c2ccc(OCCC(C)CCN3CCN(c4ccncc4)C3=O)cc2)no1` (centres undefined) has an EC50 (Enterovirus A71 [15]) of 0.5 nM.

`Cc1cc(CCCOc2c(C)cc(-c3cccc(O)c3)cc2C)on1` gave an IC50 (rhinovirus B5) of 440 nM and an IC50 [4] of 440 nM.

With `Cc1cc(CCCCCOc2c(Cl)cc(-c3ccc(Cl)s3)cc2Cl)on1` the IC50 (rhinovirus B14) was 5300 nM.

In the case of `Cc1cc(CCCCCCOc2ccc(C3=NCCO3)cc2)on1`, the IC50 (Poliovirus 2 [13]) is reported as 8 nM and the IC50 (rhinovirus A2) is reported as 100 to 120 nM.

`Cc1cc(CCCOc2c(C)cc(-c3ccc(C(F)(F)F)cc3)cc2C)on1` showed an IC50 (Coxsackievirus B3) of 1340 nM and an IC50 (rhinovirus A2) of 9 nM.

`Cc1cc(CCCOc2c(C)cc(-c3ccc(-c4ccccc4)cc3)cc2C)on1` showed an IC50 (Coxsackievirus B3) of 1340 nM and an IC50 (rhinovirus A2) of 9 nM.

`Cc1cc(CCCOc2c(C)cc(-c3cc(C(F)(F)F)cc(C(F)(F)F)c3)cc2C)on1` showed an IC50 (Coxsackievirus B3) of 1340 nM and an IC50 (rhinovirus A2) of 9 nM.

Molecule `Cc1cc(CCCCCCCOc2ccc(C3=NC(C)(C)CO3)cc2)on1` has an IC50 (Poliovirus 2 [13]) of 100 to 120 nM and an IC50 (rhinovirus A2) of 40 to 60 nM.

Work on `Cc1cc(CCCCCOc2c(Cl)cc(-c3ccco3)cc2Cl)on1` yielded an IC50 (rhinovirus B14) of 710 nM.

With `Cc1cc(CCCOc2c(C)cc(-c3ccccc3C)cc2C)on1` the IC50 (Coxsackievirus B3) was 1340 nM and the IC50 (rhinovirus A2) was 9 nM.

`Nc1nc(-c2ccccc2)nc2[nH]nc(Nc3ccc(C(F)(F)F)cc3)c12` showed an IC50 (rhinovirus B5) of 40 to 640 nM, an IC50 [16] of 40 to 640 nM and an IC50 [17] of 40 to 640 nM. It also gave an IC50 [18] of 40 to 640 nM, an IC50 (Coxsackievirus B3) of 40 to 640 nM and an IC50 (rhinovirus A2) of 40 to 640 nM.

`Cc1cc(CCCOc2c(C)cc(-c3noc(C(F)(F)F)n3)cc2C)on1` [PLECONARIL] showed an IC50 (HeLa) of at most 180 nM and an IC50 (Enterovirus [19]) of at most 30 nM.

In the case of `Cc1cc(CCCCCOc2c(Cl)cc(-c3nnn(C)n3)cc2Cl)on1`, the IC50 (rhinovirus B14) is reported as 1200 nM.

With `Cc1ccc(-c2cc(C)c(OCCCc3cc(C)no3)c(C)c2)cc1` the IC50 (rhinovirus B5) was 110 nM and the IC50 [4] was 120 nM.

`COc1ccc(OCc2ccc(COc3ccc(OC)cc3Cl)cc2)c(Cl)c1` showed an EC50 (Enterovirus [2]; Enterovirus) of 10 nM.

With `COc1ccc(OCCCCCCn2ccnc2)c(Cl)c1` the EC50 (Enterovirus [2]; Enterovirus) was 10200 to 29100 nM.

With `Cc1cc(CCCCCOc2c(Cl)cc(-c3ncco3)cc2Cl)on1` the IC50 (rhinovirus B14) was 1830 nM.

`Cc1cc(CCCCCCCOc2ccc(C3=NC(CO)CO3)cc2)on1` (centres undefined) showed an IC50 (Poliovirus 2 [13]) of 900 to 2600 nM and an IC50 (rhinovirus A2) of 900 to 2600 nM.

With `Cc1cc(CCCCCOc2c(Cl)cc(-c3ccc(C)o3)cc2Cl)on1` the IC50 (rhinovirus B14) was 2640 nM.

Work on `Cc1cc(CCCCCOc2c(Cl)cc(-c3cnco3)cc2Cl)on1` yielded an IC50 (rhinovirus B14) of 12800 nM.

`Cc1cc(CCCOc2c(C)cc(-c3ccc(O)cc3)cc2C)on1` showed an IC50 (rhinovirus B5) of 770 nM and an IC50 [4] of 770 nM.

For `Cc1cc(CCCOc2c(C)cc(-c3ccc([N+](=O)[O-])cc3)cc2C)on1`, the IC50 (rhinovirus B5) was 760 nM and the IC50 [4] was 760 nM.

For `Cc1cc(CCCOc2c(C)cc(-c3ccccc3F)cc2C)on1`, the IC50 (rhinovirus B5) was 110 nM and the IC50 [4] was 120 nM.

`Cc1cc(CCCCCOc2ccc(C3=NCCO3)cc2)on1` showed an IC50 (Poliovirus 2 [13]) of 3 nM and an IC50 (rhinovirus A2) of 100 to 120 nM.

`Cc1cc(CCCOc2c(C)cc(-c3ccc(C)c(C)c3)cc2C)on1` gave an IC50 (Coxsackievirus B3) of 1340 nM and an IC50 (rhinovirus A2) of 9 nM.

For `Cc1cc(CCCCCCCOc2ccc(C3=NCC(CO)O3)cc2)on1` (centres undefined), the IC50 (Poliovirus 2 [13]) was 900 to 2600 nM and the IC50 (rhinovirus A2) was 900 to 2600 nM.

For `Cc1cc(CCCCCCCOc2ccc(C3=NCCO3)cc2)on1` [DISOXARIL], the IC50 (Enterovirus [2]) was 4 to 6200 nM, the IC50 (Poliovirus 2 [13]) was 4 nM and the IC50 (rhinovirus A2) was 4 nM.

`COc1ccc(N2CCN(c3cccc(C)c3)CC2)nn1` gave an inhibition at 32 µM (Enterovirus [20]) of 80%.

Molecule `COc1cc(-c2cc(C)c(OCCCc3cc(C)no3)c(C)c2)cc(OC)c1OC` has an IC50 (Coxsackievirus B3) of 1340 nM and an IC50 (rhinovirus A2) of 9 nM.

`Cc1cc(CCCOc2c(C)cc(-c3ccc(OC(F)(F)F)cc3)cc2C)on1` gave an IC50 (Coxsackievirus B3) of 1340 nM and an IC50 (rhinovirus A2) of 9 nM.

Work on `Cc1nc(-c2ccc(OCCC(C)CCN3CCN(c4ccncc4)C3=O)cc2)no1` (centres undefined) yielded an EC50 (Enterovirus A71 [15]) of 0.9 nM.

In the case of `Cc1cc(CCCCCCCOc2ccc(C3=NC(C)CO3)cc2)on1` (centres undefined), the IC50 (Poliovirus 2 [13]) is reported as 100 to 120 nM and the IC50 (rhinovirus A2) is reported as 40 to 60 nM.

`Cc1cc(CCCOc2c(C)cc(-c3cccc4ccccc34)cc2C)on1` gave an IC50 (Coxsackievirus B3) of 1340 nM and an IC50 (rhinovirus A2) of 9 nM.

With `Cc1cc(CCCOc2c(C)cc(-c3ccc(F)cc3)cc2C)on1` the IC50 (rhinovirus B5) was 110 nM, the IC50 [4] was 120 nM and the IC50 (Coxsackievirus B3) was 1340 nM. The IC50 (rhinovirus A2) was 9 nM.
